Measurements taken from patent US10143686B2, “Oxidosqualene cyclase as a protein target for anticancer therapeutics” (The Curators of the University of Missouri, priority 2010, dated 2018).
Counter-ions that a name gives are not always drawn. Like-named read-outs stand apart in the source and are kept apart here.

Columns and labels:
[1] = system: H69AR lung cancer cells; assay: SRB cell viability assay, H69AR; format: cell-based; conditions: Homo sapiens
Protocol: (§1) The effect of OSC inhibition was evaluated in additional cancer cell lines as well. Cancer cell lines may be purchased from ATCC (Manassas, Va.). The SRB assay has been employed for determination of the inhibitory effects of RO 48-8071 on growth of different cancer cells. Cells were seeded into 96-well plates and incubated overnight at 37° C. with 5% CO2. The culture medium was removed after 24 hours, and cells were washed with DMEM/F12 medium and then treated with various concentrations of RO 48-8071 in 5% FBS culture medium for 24 and 48 hours. Surviving or adherent cells were fixed in situ by withdrawing the growth medium, adding 100 μl PBS and 100 μl 50% trichloroacetic acid and then incubating at 4° C. for one hour. Cells were washed with ice-cold water, dried at room temperature (RT), and then stained with 50 μl 4% SRB for eight minutes at RT. Unbound dye was removed by washing with cold 1% acetic acid for five times, and plates were dried at RT. Bound stain was solubilized with 150 μl 10 mM Tris buffer and absorbance of samples was read at 520 nm with a SpecTRA MAX 190 microplate reader (Molecular Devices, Sunnyvale, Calif.). Six wells were used for each concentration, and each experiment was performed two to three times.
Effect of RO 48-8071 on lung cancer cell line H69AR viability. […] The culture mediums employed 20% FBS RPMI-1640 for culture and 10% FBS RPMI-1640 for treatment.

[2] = system: SK-OV-3 ovarian cancer cells; assay: SRB cell viability assay, SK-OV-3; format: cell-based; conditions: Homo sapiens, SK-OV-3, Ovary
Protocol: as §1
Effect of RO 48-8071 on ovarian cancer cell line SK-OV-3 viability. […]

[3] = system: BT-20 breast cancer cells; assay: SRB cell viability assay, BT-20; format: cell-based; conditions: Homo sapiens, BT-20, Breast (triple negative)
Protocol: as §1
(§2) Effect of RO 48-8071 on estrogen, progesterone, and HER-2/neu receptors negative breast cancer cell line MDA-231 and BT-20 viability. […]

[4] = system: BT-474 human breast cancer xenograft; assay: BT-474 breast tumor xenograft in nude mice
Protocol: Female athymic nu/nu nude mice, 5 to 6 weeks-old (18-22 g) were purchased from Harland Sprague-Dawley, Inc. Nude mice were inoculated with 17-β-Estradiol pellets (1.7 mg/pellet, 60 days release) 48 hours before inoculating tumor cells. BT-474 human breast cancer cells, 5×10^6 in 0.15 ml solution mixed with matrigel and DMEM/F12 medium (4/1, v/v) were injected into each flank of mouse subcutaneously and both flanks of each mouse were injected. When tumor volume reached around 100 mm3, animal were randomly assigned to three groups and the treatment started with RO 48-8071 (5 mg/kg/day or 10 mg/kg/day) via tail-vein injection for five days, followed by same treatment every other day for five additional times as shown in the FIG. 13A. Animals in control group received the vehicle alone under identical conditions. Tumor volumes were measured by a digital caliper and calculated using the formula (L×W×H)×0.5236.
Animal weight was monitored throughout the experiment.

[5] = system: MDA-231 breast cancer cells; assay: SRB cell viability assay, MDA-231; format: cell-based; conditions: Homo sapiens, MDA-MB-231, MDA-231, Breast (triple negative)
Protocol: as §1, §2

[6] = 24 hours, read-out: IC50 (μM) (24 hours)
[7] = 48 hours, read-out: IC50 (μM) (48 hours)

SMILES: C=CCN(C)CCCCCCOc1ccc(C(=O)c2ccc(Br)cc2)c(F)c1 [Ro 48-8071, 4′-[6-(Allylmethylamino)hexyloxy]-4-bromo-2′-fluorobenzophenone fumarate]
- IC50 [1, 6]: 10.8 ± 0.609 µM
- IC50 [1, 7]: 8.11 ± 0.355 µM
- IC50 [2, 6]: 18.3 ± 0.639 µM
- IC50 [2, 7]: 12.7 ± 0.521 µM
- IC50 [3, 6]: 15.8 ± 0.335 µM
- IC50 [3, 7]: 12.7 ± 0.18 µM
- tumor volume versus control group ([4]; 5 or 10 mg/kg/day, tail-vein injection, P<0.05 ANOVA, FIG. 13A): Significant differences were observed compared with control group
- toxicity at doses used for inhibiting tumor growth ([4]; BT-474 tumor-bearing nude mice): non-toxic
- animal weight, control versus treated groups ([4]; BT-474 tumor-bearing nude mice, FIG. 13B): No significant difference
- IC50 [5, 6]: 15 ± 0.482 µM
- IC50 [5, 7]: 10.7 ± 0.276 µM
